Experimental data published in patent publication US9403873B2, “Peptides targeting receptor activator of nuclear factor-κB (RANK) and their applications” (UNIVERSITE DE NANTES, priority 2011, dated 2016).
Entries after “also recorded” stand apart in the source; their conditions may differ. Ends that are not written are not given here.

Experiments:
hRANK = target: T1, hRANK (Homo sapiens, UniProt Q9Y6Q6); experiment: Surface plasmon resonance (Biacore) binding to immobilized RANK-Fc; conditions: SPR, 1:1 Langmuir model
T1 construct: For NMR experiments with soluble RANK receptor-Fc (R&D Systems); purchased R&D Systems
T1 sequence (Q9Y6Q6 30-212 limits assumed): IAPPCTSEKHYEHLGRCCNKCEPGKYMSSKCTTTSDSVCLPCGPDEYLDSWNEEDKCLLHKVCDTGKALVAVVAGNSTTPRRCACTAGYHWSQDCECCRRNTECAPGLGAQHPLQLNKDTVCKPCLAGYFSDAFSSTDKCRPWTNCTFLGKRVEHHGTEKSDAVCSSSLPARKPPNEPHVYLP
Procedure: Biosensor experiments were carried out on a BIAcore 3000 instrument (BIAcore) as published previously (Baud′Huin et al. 2009). Recombinant purified RANKL (2 μg/mL in 5 mM maleate, pH 5.75) or RANK-Fc carrier-free (5 μg/mL in sodium acetate buffer, pH 5.0) were covalently immobilized to the dextran matrix of a CM5 sensor chip (BIAcore) at a flow rate of 5 μL/min. Immobilization levels ranging from 400 to 3000 Response Units (RU) for RANKL or 5000 RU for RANK were obtained. Binding assays were performed at 25° C. in 10 mM Hepes buffer, pH 7.4. The association phase was 180 seconds followed by a dissociation phase in the same buffer. Polypeptides binding studies to RANK or RANKL were determined using single cycle kinetics, starting with 100 μM of the polypeptide of interest followed by 2-fold serial dilutions (ranging from 100 to 0.78 μM). The sensorgrams were fitted to calculate the equilibrium-dissociation constants using the Langmuir 1:1 model with BiaEval 4.1 software (BIAcore). RANK-Fc CF, RANKL and OPG carrier-free were obtained from R&D Systems (Minneapolis, Minn., USA).

[1] = test system: cathepsin K, TRAP and NFATc1 mRNA in CD14+ cells; experiment: Real-time RT-PCR of osteoclast marker genes in CD14+ cells; format: cell-based, human; conditions: CD14+ cells with M-CSF and RANKL; day 3 to day 11 after RANKL stimulation
human CD14+ monocytes = format: cell-based
Source text: Human peripheral blood mononuclear cells (PBMCs) were isolated by centrifugation over Ficoll gradient (Sigma, Saint Quentin Fallavier, France). CD14^+ cells were magnetically labeled with CD14 Microbeads and positively selected by MACS technology (Miltenyi Biotec, Paris, France) as described previously (Duplomb et al. 2008). CD11b^+ monocytes were purified from murine bone marrow cells obtained by flushing the bone marrow from femora and tibiae of 4-week-old C57BL6 male mice, using MACS microbeads (Baud'huin et al. 2010). The purity of cell preparations was around 96%, as controlled by flow cytometry. Generation of osteoclasts from human CD14^+ and murine CD11b^+ monocytes was performed as described previously (Duplomb et al. 2008, Baud′huin et al. 2010). Briefly, purified cells were cultured in α-minimum essential medium (α-MEM, Gibco/Invitrogen, USA) with 10% fetal calf serum and 25 ng/mL human/murine macrophage colony-stimulating factor (M-CSF, R&D Systems, Abindgton, UK). After 3 days of culture, cell medium was replaced by fresh medium containing M-CSF and recombinant human RANKL (100 ng/mL, R&D system), supplemented with or without a polypeptide of interest (0.5-100 μM) or 50 ng/mL human OPG (R&D Systems) used as a reference inhibitor. Soluble cytokines, receptor and polypeptides were renewed every 3 days until multinucleated osteoclasts had formed. After 12 days of culture for CD14^+ cells and 15 days for CD11b^+ cells, osteoclasts were visualized by TRAP staining (Sigma, France) and cells formed with three or more nuclei were manually counted and analyzed statistically.

[2] = test system: ovariectomized C57BL/6 mice; experiment: Toxicity in ovariectomized mice (body weight, organ histology); format: in vivo, mouse; conditions: 10 mg/kg/day
Procedure: During the experimental period, the body weight of the mice was monitored. […] After treatment for five weeks, mice were anesthetized with isoflurane (2%, 1 L/min) and sacrificed by cervical dislocation. Lumbar vertebrae and tibiae were collected for micro-CT analysis and stored at 4° C. in 4% paraformaldehyde until further analysis. Additionally, internal organs (heart, liver, lungs, kidneys, spleen, intestines and thymus) of some mice (n=3 per group) were harvested and stored for toxicity screening.
After sacrifice, organs were conserved and fixed in 4% PFA at 4° C., and embedded in paraffin. Sections (4 μm) were cut and stained with hematoxylin and eosin (Lamoureux et al. 2009, Baud′Huin et al. 2010). General morphology of organs was evaluated on each section using a DMRXA microscope (Leica, Nussloch, Germany).

[3] = test system: mesenchymal stem cells (MSCs); experiment: Mineralization of mesenchymal stem cells (Alizarin red staining); format: cell-based; conditions: 100 μM

Sequence: NVLKLCSGE [Pep8, NVLKLCSGE]
- kon (hRANK; read-out: association rate constant (kon)): 495 M⁻¹ s⁻¹
- koff (hRANK; read-out: dissociation rate constant (koff)): 0.0052 s⁻¹
- mRNA expression of cathepsin K, TRAP and NFATc1 [1]: inhibited the mRNA expression; also recorded: markedly reduced
- IC50 (human CD14+ monocytes): 40 µM
- inhibitory activity on osteoclastogenesis (human CD14+ monocytes; 50 μM polypeptide, screen of 8 new polypeptides): inhibitory activity similar to that of the RANKL-targeting mimetics OP3-4 and WP9QY
- number of TRAP-positive multinucleated cells, % of the number formed without the polypeptide (human CD14+ monocytes; 100 μM, human cultures): 39%
- osteoclast development with polypeptide alone (human CD14+ monocytes; absence of RANKL): did not modulate osteoclast development
- histopathological evaluation of major organs ([2]; 5 weeks, heart, lungs, liver, kidneys, spleen, skin): No histomorphological difference; also recorded: no toxic effects
- effect on body weight in OVX mice ([2]; 35 days): no effect
- effect on mineralization of MSCs [3]: nor did the polypeptide at 100 μM exhibit any effect
